# Target: TRPA1 (Homo sapiens, UniProt O75762)
# Test: Synergy of cinnamaldehyde and zinc on pharmacological activity of TRPA1, in vitro
# From the text: The trigeminal ingredient may comprise cinnamaldehyde and zinc. The combination provides a minimal flavor impact and is effective to promote a swallowing reflex. Cinnamaldehyde and zinc have a synergy on the pharmacological activity of TRPA1. Using this synergy, the effective amount of cinnamaldehyde can be decreased by supplementing the cinnamaldehyde with small amount of zinc. Consequently, the combination of cinnamaldehyde and zinc can promote a swallowing reflex at concentrations in food that are tolerable both in flavor/taste and in the gastrointestinal tract. Moreover, the synergy only requires a low concentration of zinc (in vitro<1 μM).
# Sequence of TRPA1 (O75762 whole entry, species assumed): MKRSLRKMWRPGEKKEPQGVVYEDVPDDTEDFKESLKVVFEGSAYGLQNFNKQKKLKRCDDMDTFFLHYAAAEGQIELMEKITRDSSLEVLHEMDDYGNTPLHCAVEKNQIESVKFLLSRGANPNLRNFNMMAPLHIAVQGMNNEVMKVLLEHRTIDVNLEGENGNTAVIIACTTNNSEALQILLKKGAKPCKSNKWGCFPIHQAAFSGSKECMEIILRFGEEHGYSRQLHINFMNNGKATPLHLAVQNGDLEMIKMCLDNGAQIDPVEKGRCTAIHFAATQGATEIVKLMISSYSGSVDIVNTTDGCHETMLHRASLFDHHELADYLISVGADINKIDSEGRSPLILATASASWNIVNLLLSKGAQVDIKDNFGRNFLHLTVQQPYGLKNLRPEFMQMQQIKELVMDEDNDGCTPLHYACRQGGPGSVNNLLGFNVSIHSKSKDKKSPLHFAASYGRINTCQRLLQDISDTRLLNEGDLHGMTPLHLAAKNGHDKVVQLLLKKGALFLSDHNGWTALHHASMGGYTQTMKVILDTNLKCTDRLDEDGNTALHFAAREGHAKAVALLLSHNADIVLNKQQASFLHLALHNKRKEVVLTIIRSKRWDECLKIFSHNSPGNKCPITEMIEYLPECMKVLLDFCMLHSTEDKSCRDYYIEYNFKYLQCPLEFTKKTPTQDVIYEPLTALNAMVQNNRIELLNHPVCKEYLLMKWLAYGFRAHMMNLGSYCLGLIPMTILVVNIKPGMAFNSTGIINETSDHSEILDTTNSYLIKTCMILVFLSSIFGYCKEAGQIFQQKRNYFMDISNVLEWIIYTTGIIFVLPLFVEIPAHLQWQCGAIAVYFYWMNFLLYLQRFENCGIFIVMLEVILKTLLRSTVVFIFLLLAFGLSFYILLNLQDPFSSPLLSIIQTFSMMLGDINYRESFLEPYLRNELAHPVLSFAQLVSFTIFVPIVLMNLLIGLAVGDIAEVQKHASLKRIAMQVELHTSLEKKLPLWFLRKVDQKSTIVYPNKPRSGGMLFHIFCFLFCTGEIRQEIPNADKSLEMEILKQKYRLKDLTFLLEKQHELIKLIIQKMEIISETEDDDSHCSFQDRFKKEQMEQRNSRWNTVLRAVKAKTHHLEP
compound,measurement,value
[Zn] [zinc],zinc concentration required for synergy with cinnamaldehyde,< 1 µM
